Data as given in patent publication US5846823A, “Expression of human D4 dopamine receptors in stable cell lines” (Allelix Biopharmaceuticals, priority 1996, dated 1998).

Molecular target: T1, human D4 receptor (Homo sapiens, UniProt P21917, DEL265-296)
T1 construct: expressed in transfected cells
T1 sequence (P21917 with tags, fused parts or gaps DEL265-296): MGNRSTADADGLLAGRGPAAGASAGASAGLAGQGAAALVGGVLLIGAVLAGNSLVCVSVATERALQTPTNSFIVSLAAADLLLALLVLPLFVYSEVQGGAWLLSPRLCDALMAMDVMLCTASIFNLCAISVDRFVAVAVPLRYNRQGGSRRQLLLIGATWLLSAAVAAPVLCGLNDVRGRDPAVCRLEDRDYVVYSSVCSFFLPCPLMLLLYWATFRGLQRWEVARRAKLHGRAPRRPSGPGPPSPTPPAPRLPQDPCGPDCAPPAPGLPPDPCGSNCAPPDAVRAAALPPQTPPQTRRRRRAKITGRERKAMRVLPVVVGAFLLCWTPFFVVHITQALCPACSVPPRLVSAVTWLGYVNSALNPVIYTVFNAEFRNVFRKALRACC
Test: [3H]Spiperone ligand binding assay (Scatchard analysis) on membranes of stable D4 cell line
Conditions: stably expressed human D4 receptor, Scatchard analysis (FIG. 4)
Experimental: Cell membranes were prepared from 150 mM tissue culture dishes by suspending the cells in assay buffer [50 mM Tris-HCl, pH 7.4 containing 5 mM EDTA, 1.5 mM CaCl2, 5 mM MgCl2, 5 mM KCl, 120 NaCl]. The cells were homogenized using a Teflon pestle. Unbroken cells and nuclei were pelleted at 39,000×g for 15 minutes and the resulting pellet was resuspended in assay buffer at a concentration of 150-250 μg protein/ml.
Assays were terminated by washing 3×4 ml with cold 50 mM Tris-HCl, pH 7.4, followed by rapid filtration through a cell harvester and filters were monitored for tritium using the L56000SC (Beckman) counter. Binding data was analyzed using the GRAFIT software package.

maximum spiperone-binding of the D4 receptor: 4,344 fmol/mg protein
Compound: O=C(CCCN1CCC2(CC1)C(=O)NCN2c1ccccc1)c1ccc(F)cc1 [[^3 H]-labelled spiperone, spiperone]
